According to patent US20070128217A1 (priority 2003, published 2007):

What was measured:
[1] = tested on: antibodies in sera from SARS patients (sera 1a, 1b, 2, 6, 37, 62, London, SARS-yellow, SARS-green); format: binding, human; design: Binding of serum 6 to linear peptides of protein X1 of SARS-CoV Urbani / Binding of serum 37 to linear peptides of protein X1 of SARS-CoV Urbani / Binding of serum 6 to looped/cyclic peptide (PEPSCAN-ELISA) / Binding of serum 37 to looped/cyclic peptide (PEPSCAN-ELISA) / Binding of serum 37 to looped/cyclic peptides of protein X1 of SARS-CoV Urbani / Binding of serum 6 to linear peptides of protein X2 / Binding of serum 37 to linear peptides of protein X2 / Binding of serum 37 to looped/cyclic peptides of protein X2 of SARS-CoV Urbani / Binding of serum 6 to linear peptides of protein M of SARS-CoV Urbani / Binding of serum 37 to linear peptides of protein M of SARS-CoV Urbani / Binding of serum 6 to looped/cyclic peptides of protein M of SARS-CoV Urbani / Binding of serum 37 to looped/cyclic peptides of protein M of SARS-CoV Urbani / Binding of serum 6 to linear peptides of protein X3 of SARS-CoV Urbani / Binding of serum 37 to linear peptides of protein X3 of SARS-CoV Urbani / Binding of serum 37 to looped/cyclic peptides of protein X3 of SARS-CoV Urbani / Binding of serum 6 to linear peptides of protein X4 of SARS-CoV Urbani / Binding of serum 37 to linear peptides of protein X4 of SARS-CoV Urbani / Binding of serum 37 to looped/cyclic peptides of protein X4 of SARS-CoV Urbani / Binding of serum 6 to linear peptides of protein X5 of SARS-CoV Urbani / Binding of serum 37 to linear peptides of protein X5 of SARS-CoV Urbani / Binding of serum 37 to looped/cyclic peptides of protein X5 of SARS-CoV Urbani / Binding of serum 6 to linear peptides of protein N of SARS-CoV Urbani / Binding of serum 37 to linear peptides of protein N of SARS-CoV Urbani / Binding of serum 6 to linear peptide (PEPSCAN-ELISA) / Binding of serum 1a to looped/cyclic peptides of protein N of SARS-CoV Urbani / Binding of serum 1b to looped/cyclic peptides of protein N of SARS-CoV Urbani / Binding of serum 2 to looped/cyclic peptides of protein N of SARS-CoV Urbani / Binding of serum 6 to looped/cyclic peptides of protein N of SARS-CoV Urbani / Binding of serum 37 to looped/cyclic peptides of protein N of SARS-CoV Urbani / Binding of serum 62 to looped/cyclic peptides of protein N of SARS-CoV Urbani / Binding of serum London to looped/cyclic peptides of protein N of SARS-CoV Urbani / Binding of serum SARS-green to looped/cyclic peptides of protein N of SARS-CoV Urbani: unit not given here
[2] = tested on: recombinant human anti-SARS-CoV antibody 03-018; format: binding; design: Binding of antibody 03-018 to linear peptides of the N protein of SARS-CoV Urbani / Binding of antibody 03-018 to looped/cyclic peptides of the N protein of SARS-CoV Urbani: unit not given here
[3] = tested on: rabbit serum obtained by immunizing a rabbit with the SARS-CoV strain Frankfurt 1; format: binding; design: Binding of a rabbit serum to linear peptides / Binding of a rabbit serum to looped peptides / Rabbit serum linear peptides / Rabbit serum looped peptides / Binding of a rabbit serum to linear peptides of protein N of SARS-CoV Urbani (Rabbit serum linear peptides) / Binding of a rabbit serum to looped/cyclic peptides of protein N of SARS-CoV Urbani (Rabbit serum looped peptides): unit not given here
[4] = tested on: control sera (pooled serum of ten healthy LUMC hospital workers; commercial negative donor pooled serum from the Dutch bloodbank); format: binding, human; design: Binding of Control serum LUMC to linear peptides / Binding of Control serum Blood-bank to linear peptides / Binding of Control serum LUMC to looped peptides / Binding of Control Serum Blood-Bank to Looped peptides / Binding of Control serum LUMC to linear peptides of the protein M of SARS-CoV Urbani / Binding of Control serum Blood-bank to linear peptides of the protein M of SARS-CoV Urbani / Binding of Control serum LUMC to looped peptides of the protein M of SARS-CoV Urbani / Binding of Control Serum Blood-Bank to Looped peptides of the protein M of SARS-CoV Urbani: unit not given here

| Sequence | Binding of serum 1a to linear peptide (PEPSCAN-ELISA) [1] | Binding of serum 1a to looped/cyclic peptides of protein N of SARS-CoV Urbani [1] | Binding of serum 1b to linear peptide (PEPSCAN-ELISA) [1] | Binding of serum 1b to looped/cyclic peptides of protein N of SARS-CoV Urbani [1] | Binding of serum 2 to linear peptide (PEPSCAN-ELISA) [1] | Binding of serum 2 to looped/cyclic peptides of protein N of SARS-CoV Urbani [1] | Binding of serum 6 to looped/cyclic peptides of protein N of SARS-CoV Urbani [1] | Binding of serum 37 to looped/cyclic peptides of protein N of SARS-CoV Urbani [1] | Binding of serum 62 to looped/cyclic peptides of protein N of SARS-CoV Urbani [1] | Binding of serum London to looped/cyclic peptides of protein N of SARS-CoV Urbani [1] | Binding of serum SARS-green to looped/cyclic peptides of protein N of SARS-CoV Urbani [1] | Binding of serum SARS-yellow to looped/cyclic peptides of protein N of SARS-CoV Urbani [1] | Binding of antibody 03-018 to linear peptides of the N protein of SARS-CoV Urbani [2] | Binding of antibody 03-018 to looped/cyclic peptides of the N protein of SARS-CoV Urbani [2] | Binding of a rabbit serum to linear peptides of protein N of SARS-CoV Urbani (Rabbit serum linear peptides) [3] | Binding of a rabbit serum to looped/cyclic peptides of protein N of SARS-CoV Urbani (Rabbit serum looped peptides) [3] | Binding of Control Serum Blood-Bank to Looped peptides [4] | Binding of Control serum Blood-bank to linear peptides [4] | Binding of Control serum LUMC to linear peptides [4] | Binding of Control serum LUMC to looped peptides [4] | further results |
| --- | --- | --- | --- | --- | --- | --- | --- | --- | --- | --- | --- | --- | --- | --- | --- | --- | --- | --- | --- | --- | --- |
| KVSGKGQQQQGQTVT | 0.3 | 0.3 | 0.1 | 0.2 | 0.3 | 0.5 | 0.3 | 0.4 | 0.4 | 0.6 | 0.5 | 0.3 | 0.1 | 0.2 | 0.2 | 0.4 | 0.6 | 0.8 | 0.7 | 0.5 | Binding of serum 6 to linear peptide (PEPSCAN-ELISA) [1]: 0.2; Binding of serum 37 to linear peptide (PEPSCAN-ELISA) [1]: 0.6; Binding of serum 62 to linear peptide (PEPSCAN-ELISA) [1]: 0.6; Binding of serum London to linear peptide (PEPSCAN-ELISA) [1]: 0.5; Binding of serum SARS-green to linear peptide (PEPSCAN-ELISA) [1]: 0.6; Binding of serum SARS-yellow to linear peptide (PEPSCAN-ELISA) [1]: 0.6 |
| LALLLLDRLNQLESK | 0.2 | 0.3 | 0.1 | 0.2 | 0.1 | 0.4 | 0.2 | 0.5 | 0.5 | 0.4 | 0.6 | 0.4 | 0.1 | 0.2 | 0.1 | 0.6 | 0.7 | 0.7 | 0.6 | 0.6 | Binding of serum 6 to linear peptide (PEPSCAN-ELISA) [1]: 0.1; Binding of serum 37 to linear peptide (PEPSCAN-ELISA) [1]: 0.5; Binding of serum 62 to linear peptide (PEPSCAN-ELISA) [1]: 0.5; Binding of serum London to linear peptide (PEPSCAN-ELISA) [1]: 0.7; Binding of serum SARS-green to linear peptide (PEPSCAN-ELISA) [1]: 0.4; Binding of serum SARS-yellow to linear peptide (PEPSCAN-ELISA) [1]: 0.5 |
| LESKVSGKGQQQQGQ | 0.3 | 0.4 | 0.1 | 0.3 | 0.2 | 0.7 | 0.5 | 0.7 | 0.6 | 1.8 | 0.4 | 0.7 | 0.1 | 0.3 | 0.1 | 0.6 | 0.8 | 0.8 | 0.7 | 0.7 | Binding of serum 6 to linear peptide (PEPSCAN-ELISA) [1]: 0.1; Binding of serum 37 to linear peptide (PEPSCAN-ELISA) [1]: 0.6; Binding of serum 62 to linear peptide (PEPSCAN-ELISA) [1]: 0.6; Binding of serum London to linear peptide (PEPSCAN-ELISA) [1]: 0.5; Binding of serum SARS-green to linear peptide (PEPSCAN-ELISA) [1]: 0.4; Binding of serum SARS-yellow to linear peptide (PEPSCAN-ELISA) [1]: 0.7 |
| LGTGPEASLPYGANK | – | 0.3 | – | 0.2 | – | 0.5 | 0.2 | 0.5 | 0.4 | 0.4 | 0.4 | 0.5 | 0.1 | 0.2 | 0.2 | 0.4 | 0.5 | 0.9 | 0.9 | 0.6 | Binding of serum 1a to linear peptides of protein N of SARS-CoV Urbani [1]: 0.3; Binding of serum 1b to linear peptides of protein N of SARS-CoV Urbani [1]: 0.1; Binding of serum 2 to linear peptides of protein N of SARS-CoV Urbani [1]: 0.3; Binding of serum 6 to linear peptides of protein N of SARS-CoV Urbani [1]: 0.2; Binding of serum 37 to linear peptides of protein N of SARS-CoV Urbani [1]: 0.7; Binding of serum 62 to linear peptides of protein N of SARS-CoV Urbani [1]: 0.7; Binding of serum London to linear peptides of protein N of SARS-CoV Urbani [1]: 0.5; Binding of serum SARS-green to linear peptides of protein N of SARS-CoV Urbani [1]: 0.5; Binding of serum SARS-yellow to linear peptides of protein N of SARS-CoV Urbani [1]: 0.7 |
